Test results taken from patent US7402698B2, “Secondary amino-and cycloamino-cycloalkanol derivatives and methods of their use” (Wyeth, priority 2003, dated 2008).
Where a name gives a salt, the structure may show the parent alone.

Molecular target: T1, human hNET (Homo sapiens, UniProt P23975)
T1 construct: expressed in transfected cells; host or cells: MDCK-Net6 (MDCK cells stably transfected with hNET)
Test: Norepinephrine (NE) uptake assay in MDCK-Net6 cells
Assay type: cell-based
Conditions: 30 μM test compound (stated in cell), [3H]NE uptake

T1 sequence (P23975 whole entry): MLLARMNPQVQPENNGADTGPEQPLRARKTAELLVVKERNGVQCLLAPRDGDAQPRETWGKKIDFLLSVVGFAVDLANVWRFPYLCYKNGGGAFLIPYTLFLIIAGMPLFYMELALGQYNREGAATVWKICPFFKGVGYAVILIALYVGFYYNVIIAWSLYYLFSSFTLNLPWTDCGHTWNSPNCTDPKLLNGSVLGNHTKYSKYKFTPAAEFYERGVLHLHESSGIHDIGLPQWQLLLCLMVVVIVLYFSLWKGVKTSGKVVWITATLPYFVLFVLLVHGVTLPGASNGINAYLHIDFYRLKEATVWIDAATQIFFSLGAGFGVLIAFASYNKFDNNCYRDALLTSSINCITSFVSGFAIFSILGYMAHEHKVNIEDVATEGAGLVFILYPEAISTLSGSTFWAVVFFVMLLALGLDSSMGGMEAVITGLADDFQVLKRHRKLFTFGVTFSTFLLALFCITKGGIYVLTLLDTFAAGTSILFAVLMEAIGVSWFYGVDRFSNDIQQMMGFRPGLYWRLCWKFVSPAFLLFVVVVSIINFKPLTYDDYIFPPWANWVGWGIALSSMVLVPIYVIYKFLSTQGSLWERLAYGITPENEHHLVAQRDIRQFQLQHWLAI

Question: `OC1(C(CNCc2ccc(C(F)(F)F)cc2)c2cccc(Cl)c2)CCCCC1` (centres unmarked) [Example 105, 1-(1-(3-chlorophenyl)-2-{[4-(trifluoromethyl)benzyl]amino}ethyl)cyclohexanol hydrochloride] was tested. Which inhibition at 30 µM did it give?
Answer: Its inhibition at 30 µM is 99%.

Question: How did the inhibition at 30 µM turn out when `OC1(C(CN2CCOCC2)c2cccc(Br)c2)CCCCC1` (centres unmarked) [Example 99, 1-[1-(3-bromophenyl)-2-morpholin-4-ylethyl]cyclohexanol hydrochloride] was run?
Answer: Its inhibition at 30 µM is 55%.

Question: `OC1(C(CN2CCOCC2)c2cccc(Br)c2)CCC1` (centres unmarked) [Example 95, 1-[1-(3-bromophenyl)-2-morpholin-4-ylethyl]cyclobutanol hydrochloride] was tested. Which inhibition at 30 µM did it give?
Answer: Its inhibition at 30 µM is 67%.

Question: How did the inhibition at 30 µM turn out when `OC1(C(CNCc2ccc(F)cc2)c2ccc3ccccc3c2)CCCCC1` (centres unmarked) [Example 113, 1-[2-[(4-fluorobenzyl)amino]-1-(2-naphthyl)ethyl]cyclohexanol hydrochloride] was run?
Answer: The inhibition at 30 µM was 55%.

Question: Which inhibition at 30 µM does the source give for `OC1(C(CN2CCOCC2)c2ccc(Cl)c(Cl)c2)CCCCC1` (centres unmarked) [Example 112, 1-[1-(3,4-dichlorophenyl)-2-morpholin-4-ylethyl]cyclohexanol hydrochloride] here?
Answer: The inhibition at 30 µM was 80%.

Question: With `CN1CCC(O)(C(CN2CCOCC2)c2cccc(Br)c2)CC1` (centres unmarked) [Example 116, 4-[1-(3-bromophenyl)-2-morpholin-4-ylethyl]-1-methylpiperidin-4-ol dihydrochloride] as the molecule, how does the inhibition at 30 µM read?
Answer: Its inhibition at 30 µM is 6%.

Question: `OC1(C(CNCc2ccc(F)cc2)c2cccc(Br)c2)CCCCC1` (centres unmarked) [Example 98, 1-{1-(3-bromophenyl)-2-[(4-fluorobenzyl)amino]ethyl}cyclohexanol hydrochloride] was tested. Which inhibition at 30 µM did it give?
Answer: The inhibition at 30 µM was 69%.

Question: How did the inhibition at 30 µM turn out when `CN1CCC(O)(C(CN2CCOCC2)c2ccc(Cl)c(Cl)c2)CC1` (centres unmarked) [Example 114, 4-[1-(3,4-dichlorophenyl)-2-morpholin-4-ylethyl]-1-methylpiperidin-4-ol dihydrochloride] was run?
Answer: Its inhibition at 30 µM is 52%.

Molecular target: T1, human hNET
Test: as above
Assay type: cell-based
Conditions: 1 μM test compound, [3H]NE uptake
Protocol: MDCK-Net6 cells, stably transfected with human hNET (Pacholczyk, T., R. D. Blakely, and S. G. Amara, Nature, 1991, 350(6316): p. 350-4) were cultured in growth medium containing high glucose DMEM (Gibco, Cat. No. 11995), 10% FBS (dialyzed, heat-inactivated, US Bio-Technologies, Lot FBD1129HI) and 500 μg/ml G418 (Gibco, Cat. No. 10131). Cells were plated at 300,000/T75 flask and cells were split twice weekly. The JAR cell line (human placental choriocarcinoma) was purchased from ATCC (Cat. No. HTB-144). The cells were cultured in growth medium containing RPMI 1640 (Gibco, Cat. No. 72400), 10% FBS (Irvine, Cat. No. 3000), 1% sodium pyruvate (Gibco, Cat. No. 1136) and 0.25% glucose. Cells were plated at 250,000 cells/T75 flask and split twice weekly. For all assays, cells were plated in Wallac 96-well sterile plates (PerkinEimer, Cat. No. 3983498).
On day 1, cells were plated at 3,000 cells/well in growth medium and maintained in a cell incubator (37° C., 5% CO2). On day 2, growth medium was replaced with 200 μl of assay buffer (25 mM HEPES; 120 mM NaCl; 5 mM KCl; 2.5 mM CaCl2; 1.2 mM MgSO4; 2 mg/ml glucose (pH 7.4, 37° C.)) containing 0.2 mg/ml ascorbic acid and 10 μM pargyline. Plates containing cells with 200 μl of assay buffer were equilibrated for 10 minutes at 37° C. prior to addition of compounds. A stock solution of desipramine was prepared in DMSO (10 mM) and delivered to triplicate wells containing cells for a final test concentration of 1 μM. Data from these wells were used to define non-specific NE uptake (minimum NE uptake). Test compounds were prepared in DMSO (10 mM) and diluted in assay buffer according to test range (1 to 10,000 nM). Twenty-five microliters of assay buffer (maximum NE uptake) or test compound were added directly to triplicate wells containing cells in 200 μl of assay buffer. The cells in assay buffer with test compounds were incubated for 20 minutes at 37° C. To initiate the NE uptake, [^3H]NE diluted in assay buffer (120 nM final assay concentration) was delivered in 25 μl aliquots to each well and the plates were incubated for 5 minutes (37° C.). The reaction was terminated by decanting the supernatant from the plate. The plates containing cells were washed twice with 200 μl assay buffer (37° C.) to remove free radioligand. The plates were then inverted, left to dry for 2 minutes, then reinverted and air-dried for an additional 10 minutes. The cells were lysed in 25 μl of 0.25 N NaOH solution (4° C.), placed on a shake table and vigorously shaken for 5 minutes. After cell lysis, 75 μl of scintillation cocktail was added to each well and the plates were sealed with film tape. The plates were returned to the shake table and vigorously shaken for a minimum of 10 minutes to ensure adequate partitioning of organic and aqueous solutions. The plates were counted in a Wallac Microbeta counter (PerkinEimer) to collect the raw cpm data.
For each experiment, a data stream of cpm values collected from the Wallac Microbeta counter was downloaded to a Microsoft Excel statistical application program. Calculations of EC50 values were made using the transformed-both-sides logistic dose responses program written by Wyeth Biometrics Department. The statistical program uses mean cpm values from wells representing maximum binding or uptake (assay buffer) and mean cpm values from wells representing minimum binding or uptake ((1 μM desipramine (hNET) or 1 μM paroxetine (hSERT)). Estimation of the EC50 value was completed on a log scale and the line was fit between the maximum and minimum binding or uptake values. All graphic data representation was generated by normalizing each data point to a mean percent based on the maximum and minimum binding or uptake values. The EC50 values reported from multiple experiments were calculated by pooling the raw data from each experiment and analyzing the pooled data as one experiment.

Question: `OC1(C(CNC2CCCCC2)c2ccc(Cl)c(Cl)c2)CCCCC1` (centres unmarked) [Example 42, 1-[2-(cyclohexylamino)-1-(3,4-dichlorophenyl)ethyl]cyclohexanol hydrochloride] was tested. Which inhibition at 1 µM did it give?
Answer: Its inhibition at 1 µM is 48%.

Question: Which inhibition at 1 µM does the source give for `OC1(C(CN2CCCCC2)c2cccc(Cl)c2)CCCCC1` (centres unmarked) [Example 85, 1-[1-(3-chlorophenyl)-2-piperidin-1-ylethyl]cyclohexanol hydrochloride] here?
Answer: The inhibition at 1 µM was 17%.

Question: Which inhibition at 1 µM does the source give for `OC1(C(CNCc2ccccc2)c2ccc3ccccc3c2)CCC1` (centres unmarked) [Example 12, 1-[2-(benzylamino)-1-(2-naphthyl)ethyl]cyclobutanol hydrochloride] here?
Answer: The inhibition at 1 µM was 90%.

Question: `OC1(C(CNCc2ccccc2)c2ccc(Cl)c(Cl)c2)CCCCC1` (centres unmarked) [Example 38, 1-[2-(benzylamino)-1-(3,4-dichlorophenyl)ethyl]cyclohexanol hydrochloride] was tested. Which inhibition at 1 µM did it give?
Answer: The inhibition at 1 µM was 56%.

Question: `OC1(C(CNCc2ccc(F)cc2)c2ccc(Cl)c(Cl)c2)CCCCC1` (centres unmarked) [Example 80, 1-{1-(3,4-dichlorophenyl)-2-[(4-fluorobenzyl)amino]ethyl}cyclohexanol hydrochloride] was tested. Which inhibition at 1 µM did it give?
Answer: The inhibition at 1 µM was 20%.

Question: How did the inhibition at 1 µM turn out when `CN1CCC(O)(C(CNCc2ccccc2)c2ccc(Cl)c(Cl)c2)CC1` (centres unmarked) [Example 15, 4-[2-(benzylamino)-1-(3,4-dichlorophenyl)ethyl]-1-methylpiperidin-4-ol dihydrochloride] was run?
Answer: The inhibition at 1 µM was 89%.

Question: Which inhibition at 1 µM does the source give for `OC1(C(CNCc2ccccc2)c2ccc3ccccc3c2)CCCCC1` (centres unmarked) [Example 62, 1-[2-(benzylamino)-1-(2-naphthyl)ethyl]cyclohexanol hydrochloride] here?
Answer: The inhibition at 1 µM was 30%.

Question: `OC1(C(CNCc2ccccc2)c2cccc(Br)c2)CCC1` (centres unmarked) [Example 40, 1-[2-(benzylamino)-1-(3-bromophenyl)ethyl]cyclobutanol hydrochloride] was tested. Which inhibition at 1 µM did it give?
Answer: The inhibition at 1 µM was 55%.

Question: `OC1(C(CNCc2cccc(Cl)c2)c2cccc(Br)c2)CCCCC1` (centres unmarked) [Example 60, 1-{1-(3-bromophenyl)-2-[(3-chlorobenzyl)amino]ethyl}cyclohexanol hydrochloride] was tested. Which inhibition at 1 µM did it give?
Answer: The inhibition at 1 µM was 33%.

Question: Which inhibition at 1 µM does the source give for `OC1(C(CN2CCNCC2)c2cccc(Cl)c2)CCCCC1` (centres unmarked) [Example 1, 1-[1-(3-chlorophenyl)-2-piperazin-1-ylethyl]cyclohexanol dihydrochloride] here?
Answer: Its inhibition at 1 µM is 93%.

Question: For `OC1(C(CN2CCOCC2)c2cccc(Cl)c2)CCCCC1` (centres unmarked) [Example 57, 1-[1-(3-chlorophenyl)-2-morpholin-4-ylethyl]cyclohexanol hydrochloride], which inhibition at 1 µM is on record?
Answer: The inhibition at 1 µM was 35%.

Question: With `OC1(C(CNCc2cccc(Cl)c2)c2ccc3ccccc3c2)CCCCC1` (centres unmarked) [Example 33, 1-[2-[(3-chlorobenzyl)amino]-1-(2-naphthyl)ethyl]cyclohexanol hydrochloride] as the molecule, how does the inhibition at 1 µM read?
Answer: Its inhibition at 1 µM is 69%.

Question: Which inhibition at 1 µM does the source give for `OC1(C(CNCc2ccc(C(F)(F)F)cc2)c2cccc(Br)c2)CCCCC1` (centres unmarked) [Example 90, 1-(1-(3-bromophenyl)-2-{[4-(trifluoromethyl)benzyl]amino}ethyl)cyclohexanol hydrochloride] here?
Answer: The inhibition at 1 µM was 15%.

Question: With `OC1(C(CN2CCCC2)c2cccc(Cl)c2)CCCCC1` (centres unmarked) [Example 34, 1-[1-(3-chlorophenyl)-2-pyrrolidin-1-ylethyl]cyclohexanol hydrochloride] as the molecule, how does the inhibition at 1 µM read?
Answer: The inhibition at 1 µM was 65%.

Question: With `OC1(C(CNCc2ccccc2)c2cccc(Cl)c2)CCCCC1` (centres unmarked) [Example 41, 1-[2-(benzylamino)-1-(3-chlorophenyl)ethyl]cyclohexanol hydrochloride] as the molecule, how does the inhibition at 1 µM read?
Answer: Its inhibition at 1 µM is 51%.

Question: Which inhibition at 1 µM does the source give for `OC1(C(CNC2CCCc3ccccc32)c2cccc(Br)c2)CCCCC1` (centres unmarked) [Example 55, 1-[1-(3-bromophenyl)-2-(1,2,3,4-tetrahydronaphthalen-1-ylamino)ethyl]cyclohexanol hydrochloride] here?
Answer: The inhibition at 1 µM was 38%.

Question: For `OC1(C(CN2CCOCC2)c2ccc(Cl)c(Cl)c2)CCC1` (centres unmarked) [Example 83, 1-[1-(3,4-dichlorophenyl)-2-morpholin-4-ylethyl]cyclobutanol hydrochloride], which inhibition at 1 µM is on record?
Answer: The inhibition at 1 µM was 19%.

Question: `OC1(C(CNC2CCCCC2)c2cccc(Br)c2)CCCCC1` (centres unmarked) [Example 48, 1-[1-(3-bromophenyl)-2-(cyclohexylamino)ethyl]cyclohexanol hydrochloride] was tested. Which inhibition at 1 µM did it give?
Answer: Its inhibition at 1 µM is 40%.

Question: For `OC1(C(CNCc2ccccc2)c2cccc(Br)c2)CCCCC1` (centres unmarked) [Example 61, 1-[2-(benzylamino)-1-(3-bromophenyl)ethyl]cyclohexanol hydrochloride], which inhibition at 1 µM is on record?
Answer: The inhibition at 1 µM was 31%.

Question: For `OC1(C(CNCc2ccccc2)c2ccc(Cl)c(Cl)c2)CCC1` (centres unmarked) [Example 10, 1-[2-(benzylamino)-1-(3,4-dichlorophenyl)ethyl]cyclobutanol hydrochloride], which inhibition at 1 µM is on record?
Answer: The inhibition at 1 µM was 92%.

Question: `OC1(C(CNCc2ccc(F)cc2)c2cccc(C(F)(F)F)c2)CCCCC1` (centres unmarked) [Example 47, 1-{2-[(4-fluorobenzyl)amino]-1-[3-(trifluoromethyl)phenyl]ethyl}cyclohexanol hydrochloride] was tested. Which inhibition at 1 µM did it give?
Answer: The inhibition at 1 µM was 40%.

Question: For `CN1CCC(O)(C(CNCc2ccccc2)c2cccc(Br)c2)CC1` (centres unmarked) [Example 44, 4-[2-(benzylamino)-1-(3-bromophenyl)ethyl]-1-methylpiperidin-4-ol dihydrochloride], which inhibition at 1 µM is on record?
Answer: Its inhibition at 1 µM is 44%.

Question: Which inhibition at 1 µM does the source give for `OC1(C(CNCc2ccc(C(F)(F)F)cc2)c2ccc(Cl)c(Cl)c2)CCCCC1` (centres unmarked) [Example 75, 1-(1-(3,4-dichlorophenyl)-2-{[4-(trifluoromethyl)benzyl]amino}ethyl)cyclohexanol hydrochloride] here?
Answer: Its inhibition at 1 µM is 22%.

Question: How did the inhibition at 1 µM turn out when `OC1(C(CNC2CCCCC2)c2cccc(Cl)c2)CCCCC1` (centres unmarked) [Example 67, 1-[1-(3-chlorophenyl)-2-(cyclohexylamino)ethyl]cyclohexanol hydrochloride] was run?
Answer: The inhibition at 1 µM was 26%.
